How the values were obtained:
ERP57 = experiment: Effect of methoxychlor on ERP57 concentration in rat livers (immunoelectrophoresis of liver microsomes); type: in vivo; details: male CD rats, gavage in corn oil, 14 days, dosages 10, 50, and 100 mg/kg/day
From the text: The purpose of this experiment was to determine the effect of administering varying levels of methoxychlor for 14 days on the levels of the microsomal protein ERP57 in mammalian tissues.
Methoxychlor, potassium chloride, and Tris were purchased from Sigma Chemicals (St. Louis, Mo.). The BCA (Bicinchoninic Acid) Assay kits were purchased from Pierce Chemical Company (Rockford, Ill.). Agarose was purchased from Boehringer Mannheim (Indianapolis, Ind.). Polyclonal antibodies to the ERP57 were developed in laying hens as previously described (Srivastava et al. 1991, J. Biol. Chem. 266: 20337-20344; Chen et al. 1996, Biochemistry 25: 8299-8306).
The animals used in these studies were 150-200 g fed, male, CD rats from Harlan Laboratories. […] The microsomal suspensions were aliquoted and stored at −80° C. until analyzed.
The concentrations of total microsomal protein were then determined via the BCA assay. […]
The concentration of ERP57 in the samples was determined with immunoelectrophoresis. […]
The indicator dye was a combination of nitroblue tetrazolium and 5-bromo-4-chloro-3-indoyl phosphate from Bio Rad (Richmond, Calif.). […] The densities of the stained bands were determined on a flat bed scanner from UMAX (Taiwan, China). The scans were analyzed using NIH Image (version 1.54) on a PowerPC (Apple Computer). The blank for each band was determined from the adjacent, unreacted area in the lane.

[1] = cited from earlier work

In the case of `COc1ccc(C(c2ccc(OC)cc2)C(Cl)(Cl)Cl)cc1` [methoxychlor, 1,1,1-trichloro-2,2-bis-(4-methoxyphenyl)ethane], the “relative concentration of ERP57 in the rat liver, normalized by total microsomal protein” value (ERP57) is given as “significant increase” and the “rat oral LD50” value [1] is given as greater than 6000 mg/kg.

Reference: patent publication US20100152303A1, “AGENTS AND METHOD FOR […] […]” (priority 2000, published 2010)
